Laboratory results from patent publication US20260200984A1, “PEPTIDE FOR CARTILAGE REGENERATION, AND USES THEREOF” (CAREGEN CO., LTD., priority 2022, published 2026).
Read-outs that look alike come from different tables or passages of the source. Where no end group is shown, it is not given here.

Columns and labels:
[1] = tested on: human adipose-derived mesenchymal stem cells (AD-MSC); assay: CCK-8 cytotoxicity assay in AD-MSC cells; details: different concentrations, 7 days, absorbance 450 nm, FIG. 1, FIG. 2
Experimental: (§1) The aim was to analyze the cytotoxicity caused by the addition of Peptide-1 or Peptide-2 to human adipose-derived mesenchymal stem cells (AD-MSC) using the CCK-8 assay.
(§2) Specifically, AD-MSC cells were seeded in 96-well plates at a density of 1.5×10^3 cells/well and cultured in Dulbecco's Modified Eagle's Medium (DMEM) supplemented with 10% FBS for 24 hours. Then, the medium was replaced with DMEM medium supplemented with 5% FBS, and Peptide-1 or Peptide-2 was treated at different concentrations, respectively. Subsequently, the medium was replaced every 3 days and Peptide-1 or Peptide-2 was treated at different concentrations, respectively. To confirm CCK-8 activity, after 7 days, CCK-8 (Dojindo, CCK-8 kit) solution was added at 1/10 volume of the culture medium, and incubated for 2 hours. The culture medium was sampled and CCK-8 activity was confirmed at a wavelength of 450 nm using a microplate reader.

[2] = tested on: human adipose-derived mesenchymal stem cells (AD-MSC)
Experimental: as §1, §2

Sequence | toxicity toward adipose-derived mesenchymal stem cells (CCK-8 activity) [1] | toxicity toward adipose-derived mesenchymal stem cells (CCK-8 activity) [2]
SHIAGGLSFHSTV [Peptide-1, SHIAGGLSFHSTV] | did not exhibit toxicity | –
QSSLRALR [Peptide-2, QSSLRALR] | – | did not exhibit toxicity
